The values that follow come from PMC5082894 (PLoS ONE, 2016).

Molecules are shown by their SMILES.

Data set [1] deals with HeLa CD4/CCR5-LTR/β-gal cells. Nature of the data set: Cytotoxicity by MTT method (MAGI cells). The data set is classed as cell-based. To be noted: MTT, mean of triplicate ± SD. On the procedure: (§1) Briefly, target cells (HeLa CD4/CCR5-LTR/β-gal; 10^4/well) were plated in 96-well flat microtiter culture plates. […] The test drugs were added initially and viruses were immediately inoculated onto the cells. Forty-eight hours after viral exposure, all blue cells in each well were counted. The cytotoxicity of the compound was determined by the MTT method as previously described. All experiments were performed in triplicate and AZT was used as reference anti-HIV-1 molecule.
(In general: Tetrazolium assays rely on reduction of a dye to a coloured formazan, in cell work by metabolically active cells.)

The next data set deals with HIV-1 98IN017 (C-X4). Nature of the data set: PBMC antiviral assay (RT activity), HIV-1 98IN017. The data set is classed as cell-based. As to conditions: PHA-P-activated PBMCs, 125 TCID50, day 7, RT activity. On the procedure: (§2) In order to confirm antiretroviral activity of the compounds, using a cell model closer to the pathophysiology, Peripheral Blood Mononuclear Cells (PBMCs) were separated from a buffy-coat from healthy HIV-, HCV-, HBV-seronegative blood donors by Ficoll-Hypaque density gradient centrifugation. The PBMCs were activated by incubation with 1 μg/ml phytohemagglutinin-P (PHA-P; Difco Laboratories) for three days in RPMI 1640 medium supplemented with 10% heat-inactivated fetal calf serum (FCS, +56 ◦C for 45 min), 2mM l-glutamine and a 1% antibiotic cocktail (penicillin, streptomycin, neomycin). After this mitogen activation, PBMCs were cultivated in the same culture medium supplemented with recombinant human interleukin-2 (rHuIL-2; 20 IU/mL) and treated and/or infected. […] All these viruses were amplified in vitro with PHA-P-activated blood mononuclear cells and 50% tissue culture infectious doses (TCID50) were calculated using Kärber’s formula [37], after limited-dilution titration. […] Viral replication was measured by quantifying reverse transcriptase (RT) activity in the cell culture supernatants using the Lenti RT Activity Kit (Cavidi) and AZT was used as reference anti-HIV-1 molecule. EC50 were then calculated and expressed in μM.

The subject of the next data set is HIV-1 Ba-L (B-R5). Briefly: PBMC antiviral assay (RT activity), HIV-1 Ba-L. To be noted: PHA-P-activated PBMCs, 125 TCID50, day 7, RT activity. The data set is classed as cell-based. As for the experimental part:
as §2

Another data set has as its system HIV-1 LAI. Nature of the data set: MAGI assay, HIV-1 LAI. The data set is classed as cell-based. To be noted: MAGI cells, 48 h, mean of triplicate ± SD. As for the experimental part:
as §1

In data set [2] the test system is HIV-1 96USHIPS4 (B-X4/R5). Briefly: PBMC antiviral assay (RT activity), HIV-1 96USHIPS4. The data set is classed as cell-based. To be noted: PHA-P-activated PBMCs, 125 TCID50, day 7, RT activity. On the procedure: as §2
For the next data set, the system named is HIV-1 NL4-3. Briefly: MAGI assay, HIV-1 NL4-3. It counts as cell-based. As to conditions: MAGI cells, 48 h, mean of triplicate ± SD. On the procedure:
as §1

The test system of the next data set is HIV-1 LAI (B-X4). Briefly: PBMC antiviral assay (RT activity), HIV-1 LAI. The data set is classed as cell-based. To be noted: PHA-P-activated PBMCs, 125 TCID50, day 7, RT activity. As for the experimental part:
as §2

A further data set has as its system HIV-1 92HT599 (B-X4). Briefly: PBMC antiviral assay (RT activity), HIV-1 92HT599. It counts as cell-based. To be noted: PHA-P-activated PBMCs, 125 TCID50, day 7, RT activity. As for the experimental part:
as §2

For a further data set, the system named is HIV-1 92UG029 (A-X4). Nature of the data set: PBMC antiviral assay (RT activity), HIV-1 92UG029. As to conditions: PHA-P-activated PBMCs, 125 TCID50, day 7, RT activity. It counts as cell-based. On the procedure:
as §2

For the next data set, the system named is PBMCs. Nature of the data set: Cytotoxicity in PBMCs. The data set is classed as cell-based, human. To be noted: PBMCs.

The CC50 is the concentration giving 50% cytotoxicity. A lower CC50 goes with greater toxicity to the cells. A word on the EC50: it is the midpoint of the concentration-response curve. `Cc1cn([C@H]2C[C@H](N=[N+]=[N-])[C@@H](CO)O2)c(=O)[nH]c1=O` [AZT, reference compound]: the values for the CC50 (in data set [1]; in the data set on PBMCs) were more than 100000 nM and more than 1000 nM, respectively. The EC50 turned out to be 6 ± 2 nM in the data set on HIV-1 98IN017 (C-X4); 15 ± 21 nM in the data set on HIV-1 Ba-L (B-R5); 12 ± 8 nM in the data set with HIV-1 LAI; 18 ± 10 nM in data set [2]; 21 ± 11 nM with HIV-1 NL4-3; 12 ± 3 nM with HIV-1 LAI (B-X4). The EC50 amounted to 12 ± 2 nM in the data set with HIV-1 92HT599 (B-X4) and 9 ± 4 nM in the data set with HIV-1 92UG029 (A-X4).
